{"source": "patent EP0471358B1", "about": "“Fluoroethylcamptothecin derivatives” (KYORIN PHARMACEUTICAL CO., LTD., priority 1990, dated 1992)", "data": [{"tested_on": "P388 leukemia", "experiment": "Antineoplastic effect for P388 leukemia mice (survival, T/C)", "assay_type": "in vivo, CDF₁ mice", "conditions": "Total dose 20 mg/kg; dosed to the abdominal cavity 1, 5 and 9 days after transplantation of 10⁶ P388 cells; average survival days of dosed vs non-dosed group", "protocol": "(§1) P388 cells of 10⁶ in number were transplanted into abdominal cavity of CDF₁ mice of approximately 9 week-age (female, Non-dosed group: 5 - 8 mice, group dosed with the test compound: 1 - 5 mice). One, five, and nine days after the transplantation, the test compound which was dissolved or suspended in 1% Tween 80 (Kanto Chemical Inc.)/physiological saline was dosed to the abdominal cavity. The antineoplastic effect of the test compounds are shown by the T/C value (%) derived from the formula below. (T)/(C)(%) =(Average survival days of dosed group)/(Average survival days of non-dosed group)x 100 [formula]", "units": {"T/C (%)": "%"}, "values": [{"smiles": "CC[C@@]1(O)C(=O)OCc2c1cc1n(c2=O)Cc2cc3ccccc3nc2-1", "note": "[Camptothecin]", "T/C (%)": 218}, {"smiles": "CCc1c2c(nc3ccc(C)cc13)-c1cc3c(c(=O)n1C2)COC(=O)C3(O)CCF", "note": "(stereo not shown) [Example 11, 11-ethyl-4-(2-fluoroethyl)-4-hydroxy-9-methyl-1H-pyrano[3',4':6,7]indolizino[1,2-b]quinoline-3,14(4H,12H)-dione]", "T/C (%)": 483}, {"smiles": "CCc1c2c(nc3ccc([N+](=O)[O-])cc13)-c1cc3c(c(=O)n1C2)COC(=O)C3(O)CCF", "note": "(stereo not shown) [Example 16, 11-ethyl-4-(2-fluoroethyl)-4-hydroxy-9-nitro-1H-pyrano[3',4':6,7]indolizino[1,2-b]quinoline-3,14(4H,12H)-dione]", "T/C (%)": 345}, {"smiles": "O=C1OCc2c(cc3n(c2=O)Cc2c-3nc3ccc(Cl)c4c3c2CCC4)C1(O)CCF", "note": "(stereo not shown) [Example 24, 4-chloro-9-(2-fluoroethyl)-2,3-dihydro-9-hydroxy-1H,12H-benzo[d,e]pyrano[3',4':6,7]indolizino[1,2-b]quinoline-10,13(9H,15H)-dione]", "T/C (%)": 385}]}, {"tested_on": "P388 leukemia", "experiment": "Antineoplastic effect for P388 leukemia mice (survival, T/C)", "assay_type": "in vivo, CDF₁ mice", "conditions": "Total dose 30 mg/kg; dosed to the abdominal cavity 1, 5 and 9 days after transplantation of 10⁶ P388 cells; average survival days of dosed vs non-dosed group", "protocol": "as §1", "units": {"T/C (%)": "%"}, "values": [{"smiles": "CCc1ccc2nc3c(c(CC)c2c1)Cn1c-3cc2c(c1=O)COC(=O)C2(O)CCF", "note": "(stereo not shown) [Example 25, 9,11-diethyl-4-(2-fluoroethyl)-4-hydroxy-1H-pyrano[3',4':6,7]indolizino[1,2-b]quinoline-3,14(4H,12H)-dione]", "T/C (%)": 345}, {"smiles": "CCOc1ccc2nc3c(c(CC)c2c1)Cn1c-3cc2c(c1=O)COC(=O)C2(O)CCF", "note": "(stereo not shown) [Example 26, 9-ethoxy-11-ethyl-4-[2-fluoroethyl)-4-hydroxy-1H-pyrano[3',4':6,7]indolizino[1,2-b]quinoline-3,14(4H,12H)-dione]", "T/C (%)": 583}, {"smiles": "Cc1c2c(nc3ccccc13)-c1cc3c(c(=O)n1C2)COC(=O)C3(O)CCF", "note": "(stereo not shown) [Example 41, 4-[2-fluoroethyl)-4-hydroxy-11-methyl-1H-pyrano[3',4':6,7]indolizino[1,2-b]quinoline-3,14(4H,12H)-dione]", "T/C (%)": 386}]}]}
